Measurements taken from patent publication US4460560A, “Drug delivery by polymeric carriers” (University of Southern California, priority 1982, dated 1984).

What was measured:
hepatocytes [1] = experiment: Cell viability by trypan blue exclusion (Table 2); assay type: cell-based, rat; set-up: concentration or dose not given beside the values
Protocol: (§1) Cytotoxic effects of the microspheres of EXAMPLE 3 and free doxorubicin were investigated using short-term monolayer cultures established from the livers of normal rats and rats which had been fed 2-AAF or DEN. Cell viability was evaluated by trypan blue exclusion and confirmed by ^51 Cr release.
(§2) Male Fischer 344 rats weighing 150 to 200 g were used to obtain viable hepatocytes. The animals were fed a basal, high-casein diet. A 12-hr light cycle was maintained in the animal colony and water was given ad libitum. Carcinogen altered hepatocytes were produced by feeding the animals a diet containing 0.02% 2-AAF (w/w) or 80 ppm DEN in the drinking water for 8 to 12 weeks. Cells from such animals were used in the cytotoxicity and cell viability studies reported herein.
(§3) Liver cell suspensions were prepared by the collagenase perfusion technique. Cell suspensions were passed through sterile gauze filters to remove large tissue pieces. Viability was assessed by trypan blue exclusion and perfusates containing less than 65% viable cells were not used. Cells were plated at density of 1×10^6 viable cells per plastic culture flask of 25 cm^2 surface area in 4 ml of L-15 medium containing 3.5 mg/ml 4-(2-hydroxyethyl)-1-piperazineethanesulfonic acid and 2 mg/ml bovine serum albumin. The medium was supplemented with 10% fetal bovine serum, 100 μg/ml penicillin, and streptomycin. Following a 2 hour attachment period at 37° in a water-saturated 5% CO2 -95% air incubator, the cells were washed twice with medium and placed in 4ml of fresh medium supplemented with 200 μl PBS, free doxorubicin, uncoupled microspheres, or the polymer bound drug. At various times 0.8 ml of trypan blue was added to each flask and incubated for 10 minutes at 37°. The medium was removed and the number of viable cells was counted.

CEM/Vbl 100 = experiment: Growth inhibition study; assay type: cell-based, human; settings: 3-6 doubling times
Protocol: (§4) Cell lines used were the human leukemia clones CCRF-CEM/Vbl 500 and CCRF-CEM/Vbl 100 and rat liver cancer cells (RLC). All cultures were maintained in RPMI-1640 medium supplemented with fetal calf serum (2%), newborn calf serum (8%), penicillin-streptomycin (0.5 mg/ml), and fungizone (0.015 mg/ml) (Flow Laboratories Inc.). Suspension cultures were diluted to 4×10^4 cells/assay/1.8 ml medium and attached cell lines were plated at 2.5×10^5 cells/25 cm^2 growth area/3.6 ml medium. Appropriate quantities of free doxorubicin, microsphere coupled doxorubicin, plain polyglutaraldehyde microspheres, or PBS, were added and the assays were incubated for 3-6 doubling times at 37° in a 5% CO2 - 95% air incubator. Cells were then counted on a Model Zb Coulter counter and a ratio of total number of cells after incubation per number of cells originally introduced (Nt /No) was obtained.
(§5) The cell lines CEM/Vbl 100 and CEM/Vbl 500 were used in cytostatic assays to determine differences in growth inhibition properties between free doxorubicin and polymer-bound drug. Both cell lines are resistant to the effects of vinca alkaloids and are cross-resistant to Adr. […] However, using 10^-7 M of the coupled drug, the growth inhibition for both cell lines is greater than 50%. At 10^-8 M, polymer bound doxorubicin inhibits growth 4-10 times more effectively than free drug. […] Each experiment was performed three times and drug concentrations were tested in duplicate.

CEM/Vbl 500 = experiment: Growth inhibition study; assay type: cell-based, human; settings: Table 7, CEM/Vbl 100
Protocol: as §4, §5

[2] = test system: rat liver cancer cell line RLC; experiment: Growth inhibition study; assay type: cell-based
Protocol: as §4
The cytostatic activity of the drug polymer complex of EXAMPLE 3 was further investigated using the rat liver cancer cell line RLC. […] Furthermore, the Adr-PGLs retained growth inhibition properties at concentrations as low as 1×10^-9 M.

[3] = test system: hepatocytes made resistant by DEN feeding; experiment: Viability of carcinogen altered drug-resistant hepatocytes; assay type: cell-based, rat; settings: 24 hours; 10^-6 M
From the text: as §2
Liver cell suspensions were prepared by the collagenase perfusion technique. Cell suspensions were passed through sterile gauze filters to remove large tissue pieces. Viability was assessed by trypan blue exclusion and perfusates containing less than 65% viable cells were not used. Cells were plated at density of 1×10^6 viable cells per plastic culture flask of 25 cm^2 surface area in 4 ml of L-15 medium containing 3.5 mg/ml 4-(2-hydroxyethyl)-1-piperazineethanesulfonic acid and 2 mg/ml bovine serum albumin. The medium was supplemented with 10% fetal bovine serum, 100 μg/ml penicillin, and streptomycin. […] The medium was removed and the number of viable cells was counted. […]

CCRF-CEM/Vbl 100 = experiment: Cytostatic assay, IC50 determination; assay type: cell-based; settings: Homo sapiens, after 4 to 6 doubling times, average of three determinations
Protocol: (§6) In order to test the cytostatic activity of the microspheres, IC50 determinations were made with both the free drug and the drug-polymer complexes. All cell lines were maintained in suspension cultures in RPMI-1640 medium supplemented with the 2% fetal calf serum, 8% newborn calf serum, 0.5 mg/ml penicillin-streptomycin, and 0.015 mg/ml fungizone. The cells were diluted to 40,000 cells/assay/1.8 ml medium and an amount of free doxorubicin, doxorubicin-microspheres or plain microspheres was added in 0.2 ml of phosphate buffered saline. After 4 to 6 doubling times had elapsed, the remaining cells were counted on a Coulter counter. A ratio of the number of cells after incubation per the number of cells originally introduced (Nt/No) was obtained. The drug concentration required for 50% inhibition of cell growth (IC50) was calculated according to the formula [formula]

CCRF-CEM = experiment: Cytostatic assay, IC50 determination; assay type: cell-based; settings: Homo sapiens, after 4 to 6 doubling times, average of three determinations
Protocol: as §6

CCRF-CEM/Vbl 500 = experiment: Cytostatic assay, IC50 determination; assay type: cell-based; settings: Homo sapiens, after 4 to 6 doubling times, average of three determinations
Protocol: as §6

S-180 = experiment: Cytostatic assay, IC50 determination; assay type: cell-based; settings: after 4 to 6 doubling times, average of three determinations
Protocol: as §6

L1210 = experiment: Cytostatic assay, IC50 determination; assay type: cell-based; settings: Mus musculus, after 4 to 6 doubling times, average of three determinations
Protocol: as §6

hepatocytes [4] = experiment: Cell viability by 51Cr release; assay type: cell-based, rat; set-up: concentration or dose not given beside the values
Protocol: as §1, §2, §3
^51 Cr in the form of sodium chromate in sterile isotonic saline was added to the cell suspensions at a concentration of 100 μCi/0.5 ml/5×10^6 cells. The cells were then incubated at 37° for 1 hour with constant shaking. After labeling, the supernatent was removed by centrifugation at 350×g for 5 min and the cells were washed a minimum of 5 times in L-15 medium. Labeled cells were then aliquoted into culture flasks and allowed to attach as previously described. At various times 250 μl aliquots were removed from the flasks and counted in a Packard Gamma Counter. As a control for complete ^51 Cr release, 0% cell viability, cells were detached from the culture flask surface with 10% trypsin and subsequently lysed with 0.5% Nonidet P-40 followed by sonication. Total ^51 Cr release was obtained by subtraction of the residual radioactivity which remained associated with the cell debris.

[5] = Time-survival response, trypan blue viability; assay type: cell-based; settings: rat, hepatocytes, 10^-6 M
From the text: as §2, §3
These studies are not continued for longer than 24 hours due to the rapid natural decline in viability observed with untreated cells after prolonged cell culture. The viability of untreated control cultures remained constant throughout each experiment. […] However, cell viability in the presence of free drug was not affected during the first 4 hours of treatment. Alternatively, at 24 hours only 10% of the cells treated with free drug remained viable while 64% of those treated with the bound drug were unaffected. Cell viability was not influenced by addition of uncoupled microspheres to the cultures.

[6] = test system: hepatocytes made resistant by 2-AAF feeding; experiment: Viability of carcinogen altered drug-resistant hepatocytes; assay type: cell-based, rat; settings: for viability at 1 µM: 10^-6 M
From the text: as §2, §3
Hepatocytes in perfusates obtained from rats which had been fed the dietary carcinogen 2-AAF are highly resistant to the cytocidal effects of doxorubicin. Experiments were performed to determine the toxicity of the doxorubicin microspheres with regard to these resistant hepatocytes. […] Concentrations of free doxorubicin must be approximately 100-fold higher than the polymer-bound drug to decrease viability to 50%. The most significant differences in cytotoxicity occurred at a concentration of 10^-5 M where the free drug treated hepatocytes remained unaffected and polymer-bound doxorubicin decreased viability to 47%. Subsequent experiments were done with 10^-6 M, free or bound drug, to approach clinically relevant concentrations.
Cell kill kinetics of hepatocytes made resistant by 2-AAF feeding are depicted in TABLE 5. […] At 24 hours, only 67% of the cells remained viable. When hepatocytes made resistant by DEN feeding were used, the same results for free and polymer-bound Adr at 10^-6 M were obtained.

[7] = Homo sapiens, CEM/VBL100, 10^-5 M
[8] = Homo sapiens, CEM/VBL100, 10^-6 M
[9] = Homo sapiens, CEM/VBL100, 10^-7 M
[10] = Homo sapiens, CEM/VBL100, 10^-8 M
[11] = Homo sapiens, CEM/VBL100, 10^-9 M
[12] = Homo sapiens, CEM/VBL100, 10^-10 M

COc1cccc2c1C(=O)c1c(O)c3c(c(O)c1C2=O)C[C@@](O)(C(=O)CO)C[C@@H]3O[C@H]1C[C@H](N)[C@H](O)[C@H](C)O1 [Free doxorubicin, doxorubicin]
Percent viability measured by Dye Exclusion (hepatocytes [1]; incubation time 3 hr): 100% | Percent viability measured by Dye Exclusion (hepatocytes [1]; incubation time 5 hr): 99% | Percent viability measured by Dye Exclusion (hepatocytes [1]; incubation time 8 hr): 81% | Percent viability measured by Dye Exclusion (hepatocytes [1]; incubation time 12 hr): 72% | Percent viability measured by Dye Exclusion (hepatocytes [1]; incubation time 18 hr): 59% | % Inhibition of growth (CEM/Vbl 100; 10^-7 M, listed as Free Drug): 22% | inhibition at 10 µM (CEM/Vbl 100; [7]): 98% | inhibition at 1 µM (CEM/Vbl 100; [8]): 86% | inhibition at 0.1 µM (CEM/Vbl 100; [9]): < 22% | inhibition at 0.01 µM (CEM/Vbl 100; [10]): 3% | inhibition at 0.001 µM (CEM/Vbl 100; [11]): 5% | inhibition at 0.0001 µM (CEM/Vbl 100; [12]): 0% | % Inhibition of growth (CEM/Vbl 500; 10^-7 M, listed as Free Drug): 32% | inhibition at 10 µM (CEM/Vbl 500; [7]): 81% | inhibition at 1 µM (CEM/Vbl 500; [8]): 67% | inhibition at 0.1 µM (CEM/Vbl 500; [9]): < 32% | inhibition at 0.01 µM (CEM/Vbl 500; [10]): 14% | inhibition at 0.001 µM (CEM/Vbl 500; [11]): 0% | inhibition at 0.0001 µM (CEM/Vbl 500; [12]): 0% | inhibition at 10 pM (CEM/Vbl 500; Homo sapiens, CEM/VBL100, 10^-11 M): 0% | inhibition at 1000 µM ([2]; 10^-3 M): 100% | inhibition at 100 µM ([2]; 10^-4 M): 80% | inhibition at 10 µM ([2]; 10^-5 M): 36% | inhibition at 1 µM ([2]; 10^-6 M): 22% | inhibition at 0.1 µM ([2]; 10^-7 M): 0% | inhibition at 0.01 µM ([2]; 10^-8 M): 0% | inhibition at 0.001 µM ([2]; 10^-9 M): 0% | inhibition at 0.0001 µM ([2]; 10^-10 M): 0% | IC50 ([2]; RLC, read-out: 50% inhibitory concentration (IC50)): 18000 nM | viability [3]: no killing effect | IC50 (CCRF-CEM/Vbl 100): 390 nM | IC50 (CCRF-CEM): 11 nM | IC50 (CCRF-CEM/Vbl 500): 320 nM | IC50 (S-180): 23 nM | IC50 (L1210): 28 nM | Percent viability measured by Intracellular CR^51 (hepatocytes [4]; incubation time 3 hr): 100% | Percent viability measured by Intracellular CR^51 (hepatocytes [4]; incubation time 5 hr): 96% | Percent viability measured by Intracellular CR^51 (hepatocytes [4]; incubation time 8 hr): 86% | Percent viability measured by Intracellular CR^51 (hepatocytes [4]; incubation time 12 hr): 75% | Percent viability measured by Intracellular CR^51 (hepatocytes [4]; incubation time 18 hr): 57% | viability at 2 h, 1 µM ([5]; 2 hours): 99% | viability at 4 h, 1 µM ([5]; 4 hours): 98% | viability at 6 h, 1 µM ([5]; 6 hours): 91% | viability at 8 h, 1 µM ([5]; 8 hours): 81% | viability at 12 h, 1 µM ([5]; 12 hours): 72% | viability at 18 h, 1 µM ([5]; 18 hours): 59% | viability at 24 h, 1 µM ([5]; 24 hours): 10% | % Viability ([6]; 10^-5 M, 24-hr exposure, survival of attached cells compared to controls): unaffected | % Viability ([6]; 24 hours, 10^-6 M (Table 5)): no detectable killing effect | viability at 100 µM ([6]; Rattus norvegicus, Hepatocyte, 10^-4 M, 24-hr exposure, survival of attached cells compared to controls): 68% | viability at 10 µM ([6]; Rattus norvegicus, Hepatocyte, 10^-5 M, 24-hr exposure, survival of attached cells compared to controls): 100% | viability at 1 µM ([6]; Rattus norvegicus, Hepatocyte, 24-hr exposure, survival of attached cells compared to controls (Table 3)): 100% | viability at 0.1 µM ([6]; Rattus norvegicus, Hepatocyte, 10^-7 M, 24-hr exposure, survival of attached cells compared to controls): 100% | viability at 1 µM ([6]; Rattus norvegicus, Hepatocyte, 2 hours): 100% | viability at 1 µM ([6]; Rattus norvegicus, Hepatocyte, 3 hours): 100% | viability at 1 µM ([6]; Rattus norvegicus, Hepatocyte, 4 hours): 100% | viability at 1 µM ([6]; Rattus norvegicus, Hepatocyte, 6 hours): 100% | viability at 1 µM ([6]; Rattus norvegicus, Hepatocyte, 8 hours): 100% | viability at 1 µM ([6]; Rattus norvegicus, Hepatocyte, 16 hours): 100% | viability at 1 µM ([6]; Rattus norvegicus, Hepatocyte, 22 hours): 100%
